# Experimental data from article PMC7730205, “Different Sensitivity of Control and MICU1- and MICU2-Ablated Trypanosoma cruzi Mitochondrial Calcium Uniporter Complex to Ruthenium-Based Inhibitors” (International Journal of Molecular Sciences, 2020).
# Tests used:
# Type in all cases: cell-based, Trypanosoma cruzi
# T. cruzi epimastigotes [1] = assay: Cellular respiration of epimastigotes (high-resolution respirometry)
# Method: (§1) Figure 4 Effect of Ru265 on Trypanosoma cruzi. (a) Effect of Ru265 on epimastigote growth. Growth of control epimastigotes in LIT medium in the presence of 1 μM, 5 μM, and 10 μM Ru265. (b) Effect of Ru265 on trypomastigote attachment. Trypomastigotes were pretreated for 30 min with 1 μM antimycin A (AA) or 10 μM Ru265 and added to glutaraldehyde-fixed Vero cells. After 1 h of incubation at 37 °C, the cells were washed, and the number of attached trypomastigotes was counted. […] (c) Effect of Ru265 on trypomastigotes infection. Trypomastigotes were pretreated for 30 min with 1 μM antimycin A or 10 μM Ru265 and added to Vero cells. After 4 h of incubation at 37 °C, the cells were washed, and the number of intracellular parasites was counted. […] (f) Routine respiration (initial oxygen flux values), leak respiration after the addition of 0.5 µg/mL of oligomycin A, and electron transfer system (ETS) capacity after the sequential additions of FCCP (0.2 μM each) were measured for each condition. […] (g) Representative experiment showing mitochondrial Ca^2+ uptake by intact epimastigotes in relative fluorescence units (RFU). […] (h) Changes in fluorescence (before and after ionomycin addition) from three experiments like that shown in panel (g). […]
# T. cruzi epimastigotes [2] = assay: Epimastigote growth in LIT medium; conditions: 1 µM, 5 µM and 10 µM
# Method: We analyzed the growth rate of epimastigotes in LIT medium at different Ru265 concentrations (1 µM, 5 µM, and 10 µM). […] The presence of metabolic inhibitors affects attachment and invasion of T. cruzi trypomastigotes to mammalian cells since these are an active process which depends on the expenditure of parasite energy. Preincubation of trypomastigotes for 30 min with antimycin A, which blocks electron transport from cytochrome b to c1, decreased the ability of trypomastigotes to attach to glutaraldehyde-fixed cells (Figure 4b) and invade intact host cells (Figure 4c).
# Figure 4 Effect of Ru265 on Trypanosoma cruzi. (a) Effect of Ru265 on epimastigote growth. […] After 1 h of incubation at 37 °C, the cells were washed, and the number of attached trypomastigotes was counted. […] After 4 h of incubation at 37 °C, the cells were washed, and the number of intracellular parasites was counted. […] (f) Routine respiration (initial oxygen flux values), leak respiration after the addition of 0.5 µg/mL of oligomycin A, and electron transfer system (ETS) capacity after the sequential additions of FCCP (0.2 μM each) were measured for each condition. […] (g) Representative experiment showing mitochondrial Ca^2+ uptake by intact epimastigotes in relative fluorescence units (RFU). […] (h) Changes in fluorescence (before and after ionomycin addition) from three experiments like that shown in panel (g). […]
# [3] = system: T. cruzi epimastigotes (intact, non-permeabilized); assay: Mitochondrial Ca2+ uptake in intact epimastigotes using Rhod-2 AM
# Method: as §1
compound,measurement,setting,value
N.N.N.N.N.N.N.N.[Cl][Ru+3].[N-]=[Ru][Cl] [Ru265],Uncoupled respiratory control rate (state 3u / rate with oligomycin),"T. cruzi epimastigotes [1]; 10 µM Ru265, n = 3",1.70 ± 0.04
same,Effect on O2 consumption level,"T. cruzi epimastigotes [1]; control epimastigotes, 10 µM Ru265, compared with parasites without inhibitor",did not affect O2 consumption level
same,Toxicity to epimastigotes,T. cruzi epimastigotes [2],nontoxic at the concentrations tested
same,Effect on growth rate of epimastigotes,T. cruzi epimastigotes [2]; control epimastigotes,does not affect the growth rate
same,Amount of Ca2+ taken up by mitochondria of intact cells (Rhod-2 fluorescence),"[3]; 50 µM Ru265 for 30 min, nigericin + ionomycin, three experiments",no significant difference
same,Permeability in trypanosomes (inferred from lack of effect on intact cells),[3]; intact epimastigotes,low permeability
